Assay results reported in patent US20110105457A1, “HETEROCYCLIC COMPOUND HAVING INHIBITORY ACTIVITY ON PI3K” (SHIONOGI & CO., LTD., priority 2008, published 2011).

molecular target: PI-3 kinase γ (Homo sapiens, UniProt P48736); experiment: PI3Kγ inhibitory activity, PI3-kinase HTRF assay (Millipore); format: biochemical; conditions: 0.5 h; compound 50 μM; read-out: Inhibition ratio % (50 μM)
Description: (Method) The PI3Kγ inhibitory activity of a compound was evaluated using PI3-kinase HTRF™ assay (Millipore) according to the following procedure.
To each well of a testing plate was added 5 μL of a compound solution comprising 10% DMSO (200 μM as the concentration of the compound), 5 μL of 40 μM phosphatidylinositol (4,5)-bisphosphate/20 mM MgCl2/10 mM DTT, and 5 μL of 80 μg/mL PI-3 kinase γ/10 mM MgCl2/5 mM DTT, and then stood for 10 minutes.
Then, 5 μL of 40 μM ATP/10 mM MgCl2/5 mM DTT was added thereto. After reacting for 30 minutes at room temperature, 5 μL of a solution comprising EDTA and biotinylated phosphatidylinositol (3,4,5)-triphosphate was added to quench the reaction.
5 μL of a detection reagent comprising a europium-labeled anti-GST antibody, the GST-tagged PH domain, and allophycocyanin-labeled streptavidin was added thereto. After 18 hours, HTRF (excitation wavelength: 330 nm, measuring wavelengths: 620 nm and 665 nm) was measured.
A value of dividing an amount of fluorescence obtained at the measuring wavelength 665 nm by an amount of fluorescence obtained at 620 nm was defined as an HTRF ratio. The HTRF ratio in the absence of a compound was defined as 100% activity, and the HTRF ratio in the absence of PI-3 kinase γ was defined as 0% activity to calculate an inhibition ratio.

Sequence of PI-3 kinase γ (P48736 whole entry): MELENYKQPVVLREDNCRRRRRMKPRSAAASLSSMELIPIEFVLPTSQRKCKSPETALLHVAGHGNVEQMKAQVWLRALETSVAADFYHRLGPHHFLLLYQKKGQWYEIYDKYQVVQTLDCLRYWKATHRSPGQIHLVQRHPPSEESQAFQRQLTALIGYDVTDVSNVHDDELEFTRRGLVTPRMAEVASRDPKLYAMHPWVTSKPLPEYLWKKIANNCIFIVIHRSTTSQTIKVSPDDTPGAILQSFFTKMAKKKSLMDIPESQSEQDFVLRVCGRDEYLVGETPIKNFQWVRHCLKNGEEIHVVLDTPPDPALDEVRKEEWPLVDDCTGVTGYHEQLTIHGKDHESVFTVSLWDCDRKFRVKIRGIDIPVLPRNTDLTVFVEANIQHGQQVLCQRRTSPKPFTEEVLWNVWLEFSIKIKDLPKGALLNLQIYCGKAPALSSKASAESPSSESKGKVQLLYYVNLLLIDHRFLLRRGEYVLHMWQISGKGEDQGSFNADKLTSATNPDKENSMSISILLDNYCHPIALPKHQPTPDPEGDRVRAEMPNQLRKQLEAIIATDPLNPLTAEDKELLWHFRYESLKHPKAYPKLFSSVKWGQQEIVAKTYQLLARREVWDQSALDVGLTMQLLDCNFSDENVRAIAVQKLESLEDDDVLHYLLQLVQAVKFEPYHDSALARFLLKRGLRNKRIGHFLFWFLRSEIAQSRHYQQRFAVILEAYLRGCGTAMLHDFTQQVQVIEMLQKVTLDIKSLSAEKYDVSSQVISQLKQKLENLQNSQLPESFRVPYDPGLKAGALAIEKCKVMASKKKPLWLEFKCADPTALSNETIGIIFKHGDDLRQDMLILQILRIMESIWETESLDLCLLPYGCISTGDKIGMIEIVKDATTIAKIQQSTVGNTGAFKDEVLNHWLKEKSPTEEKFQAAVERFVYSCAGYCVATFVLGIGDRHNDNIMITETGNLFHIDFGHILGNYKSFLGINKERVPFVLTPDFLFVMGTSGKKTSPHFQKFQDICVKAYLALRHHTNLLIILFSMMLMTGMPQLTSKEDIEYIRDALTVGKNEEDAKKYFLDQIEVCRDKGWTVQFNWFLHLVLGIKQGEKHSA

Structure (SMILES) | inhibition at 50 µM [%]
CNC(=O)Nc1cn2nc(Cl)ccc2n1 [Compound I-1] | 72
CNC(=O)Nc1cn2nc(NC(=O)C3CCCC3)ccc2n1 [Compound I-4] | 57
CNC(=O)Nc1cn2nc(NC(=O)Nc3ccccc3)ccc2n1 [Compound I-5] | 60
CNC(=O)Nc1cn2nc(N3CCCC3=O)ccc2n1 [Compound I-6] | 67
CNC(=O)Nc1cn2nc(Nc3ccccc3)ccc2n1 [Compound I-7] | 77
CNC(=O)Nc1cn2nc(-c3ccccc3)ccc2n1 [Compound I-9] | 82
CCOC(=O)c1ccc2nc(NC(=O)NC)cn2n1 [Compound I-13] | 87
CNC(=O)Nc1cn2nc(C(=O)NCc3ccccc3)ccc2n1 [Compound I-15] | 74
CNC(=O)Nc1cn2nc(C(=O)c3cccc(OC)c3)ccc2n1 [Compound I-17] | 76
CNC(=O)Nc1cn2nc(Sc3ccccc3)ccc2n1 [Compound I-18] | 81
CNC(=O)Nc1cn2nc(Oc3ccccc3)ccc2n1 [Compound I-19] | 65
CNC(=O)Nc1cn2nc(Cc3ccccc3)ccc2n1 [Compound I-20] | 62
CNC(=O)Nc1cn2nc(COc3cccc(OC)c3)ccc2n1 [Compound I-22] | 56
COc1cccc(-c2ccc3nc(Nc4ccccc4)cn3n2)c1 [Compound I-27] | 69
CNC(=O)Nc1cn2nc(C(=O)N3CCC(C(=O)O)CC3)ccc2n1 [Compound I-32] | 70
CNC(=O)Nc1cn2nc(C(=O)Nc3cccc(C(=O)O)c3)ccc2n1 [Compound I-33] | 57
CNC(=O)Nc1cn2nc(-c3cccc(C(=O)OC)c3)ccc2n1 [Compound I-35] | 77

Structure (SMILES) | inhibition at 50 µM [%]
CNC(=O)Nc1cn2nc(-c3cccc(OC)c3)ccc2n1 [Compound I-36] | 90
CNC(=O)Nc1cn2nc(-c3ccsc3)ccc2n1 [Compound I-38] | 91
CNC(=O)Nc1cn2nc(Nc3cccc(OC)c3)ccc2n1 [Compound I-39] | 69
CNC(=O)Nc1cn2nc(C(=O)Nc3ccc(O)cc3)ccc2n1 [Compound I-41] | 83
CNC(=O)Nc1cn2nc(C(=O)Nc3ccccc3)ccc2n1 [Compound I-43] | 79
CNC(=O)Nc1cn2nc(C(=O)NCc3ccc(OC)cc3)ccc2n1 [Compound I-44] | 57
CNC(=O)Nc1cn2nc(C(=O)Nc3ccc4[nH]ccc4c3)ccc2n1 [Compound I-45] | 74
CNC(=O)Nc1cn2nc(C(=O)Nc3ccc(Cl)cc3)ccc2n1 [Compound I-46] | 76
CCCNC(=O)c1ccc2nc(NC(=O)NC)cn2n1 [Compound I-48] | 83
CNC(=O)Nc1cn2nc(C(=O)NCCOC)ccc2n1 [Compound I-49] | 64
CNC(=O)Nc1cn2nc(C(=O)NC3CCCC3)ccc2n1 [Compound I-50] | 89
CNC(=O)Nc1cn2nc(C(=O)Nc3ccc(C(=O)O)cc3)ccc2n1 [Compound I-52] | 80
CNC(=O)Nc1cn2nc(Nc3cccc(OCc4ccccc4)c3)ccc2n1 [Compound I-53] | 74
CNC(=O)Nc1cn2nc(Nc3ccc(OC)cc3)ccc2n1 [Compound I-54] | 85
CNC(=O)Nc1cn2nc(-c3cccc(C(C)=O)c3)ccc2n1 [Compound I-55] | 85
CNC(=O)Nc1cn2nc(-c3ccc(C(C)=O)cc3)ccc2n1 [Compound I-56] | 77
COc1cccc(-c2ccc3nc(NC(=O)NCCCl)cn3n2)c1 [Compound I-116] | 76

Results, then the compound that gave them:

inhibition at 50 µM [%] | Structure (SMILES)
84 | CNC(=O)Nc1cn2nc(-c3cccc(N)c3)ccc2n1 [Compound I-57]
70 | CNC(=O)Nc1cn2nc(-c3cc4ccccc4s3)ccc2n1 [Compound I-58]
52 | CNC(=O)Nc1cn2nc(-c3cccc(Cl)c3)ccc2n1 [Compound I-59]
64 | CNC(=O)Nc1cn2nc(-c3ccc(Cl)cc3)ccc2n1 [Compound I-60]
91 | CNC(=O)Nc1cn2nc(-c3ccc(OC)cc3)ccc2n1 [Compound I-63]
79 | CNC(=O)Nc1cn2nc(-c3cccc(C)c3)ccc2n1 [Compound I-65]
77 | CNC(=O)Nc1cn2nc(-c3ccc(C)cc3)ccc2n1 [Compound I-66]
72 | CNC(=O)Nc1cn2nc(-c3ccc(Cl)c(Cl)c3)ccc2n1 [Compound I-67]
90 | CNC(=O)Nc1cn2nc(-c3ccc(-c4ccccc4)cc3)ccc2n1 [Compound I-68]
89 | CNC(=O)Nc1cn2nc(-c3cccc(CO)c3)ccc2n1 [Compound I-69]
78 | CNC(=O)Nc1cn2nc(/C=C/c3ccccc3)ccc2n1 [Compound I-70]
69 | CNC(=O)Nc1cn2nc(-c3ccc(C#N)cc3)ccc2n1 [Compound I-71]
66 | CNC(=O)Nc1cn2nc(-c3ccc(S(C)(=O)=O)cc3)ccc2n1 [Compound I-72]
70 | CNC(=O)Nc1cn2nc(-c3ccc(NS(C)(=O)=O)cc3)ccc2n1 [Compound I-73]
89 | CNC(=O)Nc1cn2nc(-c3cccc(NS(C)(=O)=O)c3)ccc2n1 [Compound I-74]
72 | CNC(=O)Nc1cn2nc(-c3ccoc3)ccc2n1 [Compound I-76]
64 | CNC(=O)Nc1cn2nc(-c3ccc(C(N)=O)cc3)ccc2n1 [Compound I-77]
81 | CNC(=O)Nc1cn2nc(C3=CCCC3)ccc2n1 [Compound I-79]
57 | CNC(=O)Nc1cn2nc(-c3ccc(NC(=O)OC)cc3)ccc2n1 [Compound I-80]
79 | CNC(=O)Nc1cn2nc(-c3cccc(C(=O)N(C)C)c3)ccc2n1 [Compound I-82]
111 | CNC(=O)Nc1cn2nc(Nc3cccc(O)c3)ccc2n1 [Compound I-85]
72 | CNC(=O)Nc1cn2nc(C(=O)Nc3ccccc3OCCN)ccc2n1 [Compound I-98]
59 | CNC(=O)Nc1cn2nc(NC(C)=O)ccc2n1 [Compound I-101]
60 | CNC(=O)Nc1cn2nc(NC(=O)c3cccc(Cl)c3)ccc2n1 [Compound I-103]

inhibition at 50 µM [%] | Structure (SMILES)
55 | CNC(=O)Nc1cn2nc(NC(=O)c3ccccc3)ccc2n1 [Compound I-104]
73 | CNC(=O)Nc1cn2nc(Nc3cccc(C(=O)OC)c3)ccc2n1 [Compound I-105]
74 | COc1cccc(-c2ccc3nc(NC(=O)NCCc4ccccc4)cn3n2)c1 [Compound I-107]
89 | COc1cccc(-c2ccc3nc(NC(=O)Nc4cccs4)cn3n2)c1 [Compound I-108]
99 | COc1cccc(-c2ccc3nc(NC(=O)NC4CCCCC4)cn3n2)c1 [Compound I-109]
81 | CCCNC(=O)Nc1cn2nc(-c3cccc(OC)c3)ccc2n1 [Compound I-110]
55 | COc1cccc(-c2ccc3nc(NC(=O)Nc4ccsc4)cn3n2)c1 [Compound I-111]
84 | CCOC(=O)CNC(=O)Nc1cn2nc(-c3cccc(OC)c3)ccc2n1 [Compound I-112]
86 | COc1cccc(-c2ccc3nc(NC(=O)NC(C)C)cn3n2)c1 [Compound I-113]
78 | COc1cccc(-c2ccc3nc(NC(=O)NC4CCCC4)cn3n2)c1 [Compound I-115]
85 | CCCCNC(=O)Nc1cn2nc(-c3cccc(OC)c3)ccc2n1 [Compound I-117]
71 | CNC(=O)Nc1cn2nc(C(=O)N[C@@H](C)C(N)=O)ccc2n1 [Compound I-121]
61 | CNC(=O)Nc1cn2nc(N3CCOC3=O)ccc2n1 [Compound I-122]
105 | CNC(=O)Nc1cn2nc(-c3cccc(NC(C)=O)c3)ccc2n1 [Compound I-124]
79 | CNC(=O)Nc1cn2nc(-c3cccc(C(C)C)c3)ccc2n1 [Compound I-127]
50 | CNC(=O)Nc1cn2nc(-c3cccc([N+](=O)[O-])c3)ccc2n1 [Compound I-128]
70 | CNC(=O)Nc1cn2nc(-c3cccc(COC(C)(C)C)c3)ccc2n1 [Compound I-131]
78 | CNC(=O)Nc1cn2nc(-c3cccc(COC)c3)ccc2n1 [Compound I-132]
65 | CNC(=O)Nc1cn2nc(-c3ccc(-c4ccccc4)s3)ccc2n1 [Compound I-133]
59 | CNC(=O)Nc1cn2nc(-c3cccc(C#N)c3)ccc2n1 [Compound I-134]
80 | CNC(=O)Nc1cn2nc(-c3cccc(SC)c3)ccc2n1 [Compound I-135]
75 | CNC(=O)Nc1cn2nc(-c3cccc(C(=O)N4CCOCC4)c3)ccc2n1 [Compound I-138]
79 | CNC(=O)Nc1cn2nc(-c3cccc(C(=O)NC(C)C)c3)ccc2n1 [Compound I-139]
60 | CNC(=O)Nc1cn2nc(-c3cccc(C(=O)NCC(C)C)c3)ccc2n1 [Compound I-140]
